Key:
[1] = target: Gamma-aminobutyric acid receptor subunit alpha-1/alpha-2/beta-2/gamma-2 (Homo sapiens, UniProt P14867+P18507+P47869+P47870); type: functional, cell-based
[2] = target: T1, Peroxisome proliferator-activated receptor gamma (Homo sapiens, UniProt P37231); type: functional
T1 sequence (P37231 whole entry): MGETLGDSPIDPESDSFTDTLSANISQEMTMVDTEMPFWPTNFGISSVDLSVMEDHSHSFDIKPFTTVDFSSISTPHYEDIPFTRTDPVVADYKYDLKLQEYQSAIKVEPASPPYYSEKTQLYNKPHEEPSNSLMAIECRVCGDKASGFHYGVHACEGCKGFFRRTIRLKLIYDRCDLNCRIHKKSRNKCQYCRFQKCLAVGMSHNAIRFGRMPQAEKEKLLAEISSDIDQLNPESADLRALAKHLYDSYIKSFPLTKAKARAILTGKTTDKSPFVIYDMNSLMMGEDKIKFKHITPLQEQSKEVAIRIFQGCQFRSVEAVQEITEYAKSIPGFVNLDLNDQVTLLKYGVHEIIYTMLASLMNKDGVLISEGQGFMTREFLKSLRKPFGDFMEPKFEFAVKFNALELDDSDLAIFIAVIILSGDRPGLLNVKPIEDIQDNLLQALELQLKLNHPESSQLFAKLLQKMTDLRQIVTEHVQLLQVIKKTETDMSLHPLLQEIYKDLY

[3] = target: T2, Alpha-1A adrenergic receptor (Homo sapiens, UniProt P35348); type: functional, cell-based
T2 sequence (P35348 whole entry): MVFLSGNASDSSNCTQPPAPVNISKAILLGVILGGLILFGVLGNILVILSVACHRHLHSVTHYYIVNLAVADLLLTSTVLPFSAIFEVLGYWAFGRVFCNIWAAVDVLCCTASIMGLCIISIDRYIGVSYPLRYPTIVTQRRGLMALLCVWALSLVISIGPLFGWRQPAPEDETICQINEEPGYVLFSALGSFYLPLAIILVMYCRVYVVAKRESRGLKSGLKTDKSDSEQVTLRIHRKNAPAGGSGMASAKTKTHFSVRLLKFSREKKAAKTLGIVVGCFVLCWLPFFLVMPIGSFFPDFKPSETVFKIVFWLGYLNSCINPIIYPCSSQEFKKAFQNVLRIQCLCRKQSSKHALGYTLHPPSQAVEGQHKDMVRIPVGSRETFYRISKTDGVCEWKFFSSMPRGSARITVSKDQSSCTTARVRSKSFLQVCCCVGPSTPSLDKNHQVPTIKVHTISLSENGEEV

[4] = target: T2, Alpha-1A adrenergic receptor; type: functional, cell-based; remark: listed apart in the source
Prothrombin = Prothrombin (Homo sapiens, UniProt P00734); type: functional
Histamine H3 receptor = Histamine H3 receptor (Homo sapiens, UniProt Q9Y5N1)
[5] = target: 3',5'-cyclic-AMP phosphodiesterase 4A (Homo sapiens, UniProt P27815); type: functional
[6] = target: T3, Prostaglandin G/H synthase 1 (Homo sapiens, UniProt P23219); type: functional
[7] = target: T3, Prostaglandin G/H synthase 1; type: functional; remark: listed apart in the source
Thromboxane A2 receptor = target: T4, Thromboxane A2 receptor (Homo sapiens, UniProt P21731); type: functional, cell-based
T4 sequence (P21731 whole entry): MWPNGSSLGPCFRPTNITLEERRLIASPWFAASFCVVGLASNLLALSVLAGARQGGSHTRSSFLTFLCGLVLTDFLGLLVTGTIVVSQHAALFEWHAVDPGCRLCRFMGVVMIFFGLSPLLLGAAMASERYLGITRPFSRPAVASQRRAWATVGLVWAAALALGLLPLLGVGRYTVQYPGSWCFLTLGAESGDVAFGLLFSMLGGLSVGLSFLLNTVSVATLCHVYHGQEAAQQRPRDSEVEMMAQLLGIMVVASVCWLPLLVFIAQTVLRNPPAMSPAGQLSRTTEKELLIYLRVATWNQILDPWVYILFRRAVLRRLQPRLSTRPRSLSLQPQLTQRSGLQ

[8] = target: T5, Corticotropin-releasing factor receptor 2 (Homo sapiens, UniProt Q13324)
T5 sequence (Q13324 whole entry): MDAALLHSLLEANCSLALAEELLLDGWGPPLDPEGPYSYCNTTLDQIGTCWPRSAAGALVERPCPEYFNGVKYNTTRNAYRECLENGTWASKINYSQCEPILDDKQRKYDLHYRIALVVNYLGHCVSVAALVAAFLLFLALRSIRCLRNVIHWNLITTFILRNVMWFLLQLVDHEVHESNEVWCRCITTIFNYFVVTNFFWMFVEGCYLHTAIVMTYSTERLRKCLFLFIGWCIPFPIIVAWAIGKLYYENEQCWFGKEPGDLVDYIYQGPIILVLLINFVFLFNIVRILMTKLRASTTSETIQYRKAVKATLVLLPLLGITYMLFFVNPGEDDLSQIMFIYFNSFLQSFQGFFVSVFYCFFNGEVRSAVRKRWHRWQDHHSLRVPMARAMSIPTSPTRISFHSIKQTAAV

[9] = target: T6, Gastric inhibitory polypeptide receptor (Homo sapiens, UniProt P48546)
T6 sequence (P48546 whole entry): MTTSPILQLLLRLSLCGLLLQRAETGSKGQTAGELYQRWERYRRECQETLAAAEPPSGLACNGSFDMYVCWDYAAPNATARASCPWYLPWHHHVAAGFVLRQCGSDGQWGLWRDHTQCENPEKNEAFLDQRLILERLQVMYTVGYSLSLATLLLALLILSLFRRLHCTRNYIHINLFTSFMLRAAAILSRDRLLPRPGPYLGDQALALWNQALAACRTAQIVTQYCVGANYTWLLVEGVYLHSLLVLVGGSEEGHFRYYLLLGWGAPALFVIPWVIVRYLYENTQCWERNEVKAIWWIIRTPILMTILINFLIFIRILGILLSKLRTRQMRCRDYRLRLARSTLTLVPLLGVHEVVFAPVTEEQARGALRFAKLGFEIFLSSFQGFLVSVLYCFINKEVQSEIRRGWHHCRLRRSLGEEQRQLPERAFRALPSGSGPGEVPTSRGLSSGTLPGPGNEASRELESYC

Histamine H1 receptor = Histamine H1 receptor (Homo sapiens, UniProt P35367); type: functional, cell-based
Further: assay procedure not described here.

T3 sequence (P23219 whole entry): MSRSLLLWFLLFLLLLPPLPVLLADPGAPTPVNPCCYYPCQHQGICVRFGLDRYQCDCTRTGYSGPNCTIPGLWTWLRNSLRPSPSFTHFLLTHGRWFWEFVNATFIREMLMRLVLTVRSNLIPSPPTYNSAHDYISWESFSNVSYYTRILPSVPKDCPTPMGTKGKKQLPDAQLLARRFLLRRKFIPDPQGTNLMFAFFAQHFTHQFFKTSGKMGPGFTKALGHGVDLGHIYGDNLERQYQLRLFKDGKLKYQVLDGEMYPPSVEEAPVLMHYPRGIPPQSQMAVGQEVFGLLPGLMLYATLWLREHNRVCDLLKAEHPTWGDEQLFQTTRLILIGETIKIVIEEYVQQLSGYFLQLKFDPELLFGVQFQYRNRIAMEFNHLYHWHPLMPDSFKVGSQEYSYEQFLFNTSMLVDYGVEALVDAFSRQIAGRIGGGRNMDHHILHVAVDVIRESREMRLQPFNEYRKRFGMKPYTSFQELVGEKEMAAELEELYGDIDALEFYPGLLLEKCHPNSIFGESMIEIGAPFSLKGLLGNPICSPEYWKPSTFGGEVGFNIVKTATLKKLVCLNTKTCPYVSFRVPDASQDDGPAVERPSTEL
Chain of Gamma-aminobutyric acid receptor subunit alpha-1/alpha-2/beta-2/gamma-2 (P14867 whole entry): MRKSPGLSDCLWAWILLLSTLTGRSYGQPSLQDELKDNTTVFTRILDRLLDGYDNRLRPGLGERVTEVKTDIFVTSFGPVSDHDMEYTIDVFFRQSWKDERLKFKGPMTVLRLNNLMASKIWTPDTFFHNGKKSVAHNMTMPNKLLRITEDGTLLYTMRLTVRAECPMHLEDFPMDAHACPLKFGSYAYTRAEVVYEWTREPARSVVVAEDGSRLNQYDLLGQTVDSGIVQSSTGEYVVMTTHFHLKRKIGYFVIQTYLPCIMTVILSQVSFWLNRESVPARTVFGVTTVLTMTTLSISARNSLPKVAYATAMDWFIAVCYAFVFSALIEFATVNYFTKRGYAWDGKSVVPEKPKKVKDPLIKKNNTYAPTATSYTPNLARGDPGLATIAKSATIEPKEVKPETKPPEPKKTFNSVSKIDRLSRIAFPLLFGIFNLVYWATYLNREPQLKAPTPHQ
Chain of Gamma-aminobutyric acid receptor subunit alpha-1/alpha-2/beta-2/gamma-2 (P47870 whole entry): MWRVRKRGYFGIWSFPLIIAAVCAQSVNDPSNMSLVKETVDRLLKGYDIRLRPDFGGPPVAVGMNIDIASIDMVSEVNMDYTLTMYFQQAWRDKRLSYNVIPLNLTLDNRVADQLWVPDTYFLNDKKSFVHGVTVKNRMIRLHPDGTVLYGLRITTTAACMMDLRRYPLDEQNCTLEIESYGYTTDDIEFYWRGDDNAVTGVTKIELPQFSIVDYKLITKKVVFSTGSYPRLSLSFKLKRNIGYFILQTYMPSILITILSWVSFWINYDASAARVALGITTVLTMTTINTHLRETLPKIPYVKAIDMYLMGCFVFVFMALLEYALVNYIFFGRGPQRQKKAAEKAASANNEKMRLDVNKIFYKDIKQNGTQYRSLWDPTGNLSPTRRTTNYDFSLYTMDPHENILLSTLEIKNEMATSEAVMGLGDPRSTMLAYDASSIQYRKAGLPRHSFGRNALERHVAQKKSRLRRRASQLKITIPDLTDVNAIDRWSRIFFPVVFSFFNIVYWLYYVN
Chain of Gamma-aminobutyric acid receptor subunit alpha-1/alpha-2/beta-2/gamma-2 (P18507 whole entry): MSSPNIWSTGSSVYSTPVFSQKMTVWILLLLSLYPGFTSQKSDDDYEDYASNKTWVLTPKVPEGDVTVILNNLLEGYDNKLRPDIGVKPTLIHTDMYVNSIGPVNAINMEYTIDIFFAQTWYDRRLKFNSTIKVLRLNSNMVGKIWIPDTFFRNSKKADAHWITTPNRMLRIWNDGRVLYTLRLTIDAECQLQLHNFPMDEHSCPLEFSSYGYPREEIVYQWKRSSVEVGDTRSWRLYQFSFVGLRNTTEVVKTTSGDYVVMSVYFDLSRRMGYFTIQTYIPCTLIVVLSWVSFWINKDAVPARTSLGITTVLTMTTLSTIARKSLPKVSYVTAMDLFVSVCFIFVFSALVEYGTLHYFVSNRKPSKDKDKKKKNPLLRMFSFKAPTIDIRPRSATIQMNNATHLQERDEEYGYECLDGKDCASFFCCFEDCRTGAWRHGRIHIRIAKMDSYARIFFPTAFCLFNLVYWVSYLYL
Chain of Gamma-aminobutyric acid receptor subunit alpha-1/alpha-2/beta-2/gamma-2 (P47869 whole entry): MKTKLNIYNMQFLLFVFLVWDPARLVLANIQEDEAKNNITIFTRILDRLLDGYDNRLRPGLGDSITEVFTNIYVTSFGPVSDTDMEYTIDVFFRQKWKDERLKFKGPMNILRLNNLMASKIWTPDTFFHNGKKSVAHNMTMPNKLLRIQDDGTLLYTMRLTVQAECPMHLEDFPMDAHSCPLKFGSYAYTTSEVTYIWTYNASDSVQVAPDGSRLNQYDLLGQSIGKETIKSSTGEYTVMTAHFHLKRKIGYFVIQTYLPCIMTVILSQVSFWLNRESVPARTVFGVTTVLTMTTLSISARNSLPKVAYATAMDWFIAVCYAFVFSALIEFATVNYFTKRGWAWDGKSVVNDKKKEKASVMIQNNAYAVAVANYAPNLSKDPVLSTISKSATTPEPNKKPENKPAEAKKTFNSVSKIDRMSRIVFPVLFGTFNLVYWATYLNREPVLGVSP
Chain of Histamine H3 receptor (Q9Y5N1 whole entry): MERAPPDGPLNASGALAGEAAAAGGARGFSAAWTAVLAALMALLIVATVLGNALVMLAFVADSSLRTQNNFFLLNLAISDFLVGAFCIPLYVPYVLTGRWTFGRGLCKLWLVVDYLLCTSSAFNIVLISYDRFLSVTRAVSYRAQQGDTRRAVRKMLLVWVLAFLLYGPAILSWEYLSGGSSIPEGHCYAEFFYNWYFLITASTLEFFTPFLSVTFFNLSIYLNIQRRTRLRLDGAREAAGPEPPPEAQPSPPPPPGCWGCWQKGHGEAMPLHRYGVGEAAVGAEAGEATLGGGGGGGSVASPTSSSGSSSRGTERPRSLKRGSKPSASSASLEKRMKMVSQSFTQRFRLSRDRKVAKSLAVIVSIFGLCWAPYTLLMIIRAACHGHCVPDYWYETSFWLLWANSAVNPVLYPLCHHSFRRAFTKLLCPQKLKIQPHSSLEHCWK
Chain of Histamine H1 receptor (P35367 whole entry): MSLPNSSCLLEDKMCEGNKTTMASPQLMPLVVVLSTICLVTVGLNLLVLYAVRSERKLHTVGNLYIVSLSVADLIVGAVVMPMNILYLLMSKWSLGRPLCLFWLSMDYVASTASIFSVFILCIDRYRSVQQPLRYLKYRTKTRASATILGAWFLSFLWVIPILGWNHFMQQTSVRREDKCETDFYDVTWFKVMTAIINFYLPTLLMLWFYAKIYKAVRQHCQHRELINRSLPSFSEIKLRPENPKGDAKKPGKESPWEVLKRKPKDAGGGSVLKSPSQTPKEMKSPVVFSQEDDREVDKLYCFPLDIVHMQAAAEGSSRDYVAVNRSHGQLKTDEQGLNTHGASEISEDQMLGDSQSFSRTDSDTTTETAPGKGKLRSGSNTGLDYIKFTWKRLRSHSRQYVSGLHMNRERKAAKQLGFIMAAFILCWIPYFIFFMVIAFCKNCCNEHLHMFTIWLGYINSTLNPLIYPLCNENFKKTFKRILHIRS
Chain of 3',5'-cyclic-AMP phosphodiesterase 4A (P27815 whole entry): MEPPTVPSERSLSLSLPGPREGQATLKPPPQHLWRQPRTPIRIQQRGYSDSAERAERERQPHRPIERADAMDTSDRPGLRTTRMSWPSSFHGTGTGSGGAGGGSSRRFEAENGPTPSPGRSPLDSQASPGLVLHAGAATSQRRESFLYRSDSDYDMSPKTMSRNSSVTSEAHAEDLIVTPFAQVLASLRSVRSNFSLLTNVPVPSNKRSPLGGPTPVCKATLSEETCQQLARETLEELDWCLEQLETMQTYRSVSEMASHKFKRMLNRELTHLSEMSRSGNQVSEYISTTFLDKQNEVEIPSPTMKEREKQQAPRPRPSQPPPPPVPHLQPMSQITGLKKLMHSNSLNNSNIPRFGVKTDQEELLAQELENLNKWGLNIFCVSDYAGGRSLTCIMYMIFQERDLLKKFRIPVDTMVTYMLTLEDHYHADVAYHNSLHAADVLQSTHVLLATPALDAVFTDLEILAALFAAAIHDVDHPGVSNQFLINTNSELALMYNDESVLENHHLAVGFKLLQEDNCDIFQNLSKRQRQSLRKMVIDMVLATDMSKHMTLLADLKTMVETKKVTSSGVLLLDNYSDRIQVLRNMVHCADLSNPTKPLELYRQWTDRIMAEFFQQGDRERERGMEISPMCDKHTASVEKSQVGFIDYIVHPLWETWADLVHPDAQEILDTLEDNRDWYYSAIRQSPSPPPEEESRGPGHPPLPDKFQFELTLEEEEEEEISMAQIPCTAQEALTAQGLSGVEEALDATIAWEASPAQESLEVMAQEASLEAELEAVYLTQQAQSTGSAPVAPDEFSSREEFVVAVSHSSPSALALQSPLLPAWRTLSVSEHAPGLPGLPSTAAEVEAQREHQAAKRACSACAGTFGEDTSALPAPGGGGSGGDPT

Compound: Oc1ccc2c(c1)[C@@]13CCCC[C@@]1(O)[C@@H](C2)N(CC1CCC1)CC3 [BUTORPHANOL]
- AC50 [1]: > 30 µM
- AC50 [2]: > 30 µM

Compound: O=C(O)CCCCC1CCSS1 (stereo not drawn) [LIPOIC ACID, ALPHA]
- AC50 [3]: > 30 µM
- AC50 [4]: > 30 µM
- AC50 (Prothrombin): > 30 µM
- AC50 (Histamine H3 receptor): > 30 µM
- AC50 [5]: > 30 µM
- AC50 [6]: > 30 µM
- AC50 [7]: > 30 µM
- AC50 (Thromboxane A2 receptor): > 30 µM

Compound: Cn1c(=O)cc(N2CCC[C@@H](N)C2)n(Cc2ccccc2C#N)c1=O [ALOGLIPTIN]
- AC50 [8]: > 30 µM
- AC50 [9]: > 30 µM

Compound: CC(=O)OCC(=O)[C@@]1(O)[C@H](C)C[C@H]2[C@@H]3CCC4=CC(=O)C=C[C@]4(C)[C@@]3(F)[C@@H](O)C[C@@]21C [DEXAMETHASONE ACETATE]
- AC50 [8]: > 30 µM
- AC50 [9]: > 30 µM

Compound: CCN1CCCC1CNC(=O)c1cc(S(=O)(=O)CC)c(N)cc1OC (stereo unspecified) [AMISULPRIDE]
- AC50 [1]: > 30 µM
- AC50 (Histamine H1 receptor): > 30 µM
- AC50 [2]: > 30 µM

Compound: Nc1c2ccccc2nc2ccccc12 [AMINACRINE]
- AC50 [3]: > 30 µM
- AC50 [4]: 9.77 µM
- AC50 (Prothrombin): > 30 µM
- AC50 (Histamine H3 receptor): > 30 µM
- AC50 [5]: > 30 µM
- AC50 [6]: > 30 µM
- AC50 [7]: > 30 µM
- AC50 (Thromboxane A2 receptor): > 30 µM

Compound: OCc1cc(C(O)CNCCCCCCOCCCCc2ccccc2)ccc1O (stereo unspecified) [SALMETEROL]
- AC50 (Histamine H1 receptor): > 30 µM

— ChEMBL document CHEMBL5291721, “A preclinical secondary pharmacology resource illuminates target-adverse drug reaction associations of marketed drugs” (Nat Commun, 2023)
